Measurements reported in patent US20250108051A1, “THERAPEUTIC AGENT FOR CANCER” (TOHOKU UNIVERSITY, priority 2022, published 2025).
Read-outs that look alike come from different tables or passages of the source.

Assays:
Assay type in all cases: cell-based
[1] = tested on: CO115 (BRAF V600E-mutated colorectal cancer cell line); experiment: MTT assay, encorafenib + binimetinib with retinoid
Procedure: (§1) RKO cells were seeded on a 96-well plate with the number of cells of 1.5×10^3 cells/well, CO115 cells were seeded on a 96-well plate with the number of cells of 2.5×10^3 cells/well, and HT29 cells and WiDR cells were respectively seeded on 96-well plates with the number of cells of 6×10^3 cells/well. After incubation for about 24 hours until the cell density reached 40% to 60%, the drug was administered. After incubation at 37° C. for 72 hours, the MTT assay was performed using Cell Counting Kit-8 (Dojindo Laboratories, Kumamoto, Japan). To each well was added 10 μl of Cell Counting Kit-8 solution, the plates were placed in a culture vessel at 5% CO2 and 37° C. for 120 minutes to perform a color reaction, and then the absorbance at 450 nm was measured and evaluated with a microplate reader SpectraMax M2e (Molecular Devices, Sunnyvale, CA, USA). Cells administered with 0.1% DMSO were used as a control. The above was performed three or more times as independent experiments.
(§2) In various kinds of colorectal cancer cell lines, the inhibition effect of a BRAF inhibitor (encorafenib) and an MEK inhibitor (binimetinib) for the viability of cells and the enhancement by ATRA were examined. […] The horizontal axis indicates component concentrations of encorafenib and binimetinib in a range of 0 μM to 10 μM, and the vertical axis indicates the cell viability when 0 μM, 1.0 μM, or 10 μM (each bar graph) of ATRA was administered. As shown in the drawing, encorafenib and binimetinib were used in an equal molar concentration.
(§3) As the compounds for acting and on a retinoid receptor, retinol, tamibarotene, bexarotene among the retinoids were used. As the cell lines, the above-described cell lines including RKO, HT29, and CO115 were used. As the BRAF inhibitor and the MEK inhibitor to be used in combination, a component (EB) obtained by mixing encorafenib and binimetinib in equal amounts was used as in Test Example 2.
as §3, with “acting” for “acting and”, “tamibarotene, and” for “tamibarotene,”, “colorectal cancer” for “above-described”, “HT29, CO115, WiDR, COLO205,” for “HT29,”, “LIM2405 described above” for “CO115”

[2] = tested on: RKO (BRAF V600E-mutated colorectal cancer cell line); experiment: MTT assay, encorafenib + binimetinib with retinoid
Procedure: as §1, §2, §3
as §3, with “acting” for “acting and”, “tamibarotene, and” for “tamibarotene,”, “colorectal cancer” for “above-described”, “HT29, CO115, WiDR, COLO205,” for “HT29,”, “LIM2405 described above” for “CO115”

[3] = tested on: HT29 (BRAF V600E-mutated colorectal cancer cell line); experiment: MTT assay, encorafenib + binimetinib with retinoid
Procedure: as §1, §2, §3
as §3, with “acting” for “acting and”, “tamibarotene, and” for “tamibarotene,”, “colorectal cancer” for “above-described”, “HT29, CO115, WiDR, COLO205,” for “HT29,”, “LIM2405 described above” for “CO115”

COLO205 cell line = experiment: MTT assay, encorafenib + binimetinib with retinoid; details: Test Example 6; concentration-dependent
Procedure: as §1
as §3, with “acting” for “acting and”, “tamibarotene, and” for “tamibarotene,”, “colorectal cancer” for “above-described”, “HT29, CO115, WiDR, COLO205,” for “HT29,”, “LIM2405 described above” for “CO115”

LIM2405 cell line = experiment: MTT assay, encorafenib + binimetinib with retinoid; details: Test Example 6; concentration-dependent
Procedure: as §1
as §3, with “acting” for “acting and”, “tamibarotene, and” for “tamibarotene,”, “colorectal cancer” for “above-described”, “HT29, CO115, WiDR, COLO205,” for “HT29,”, “LIM2405 described above” for “CO115”

[4] = tested on: WiDR (BRAF V600E-mutated colorectal cancer cell line); experiment: MTT assay, encorafenib + binimetinib with retinoid; details: Test Example 6; concentration-dependent
Procedure: as §1, §2
as §3, with “acting” for “acting and”, “tamibarotene, and” for “tamibarotene,”, “colorectal cancer” for “above-described”, “HT29, CO115, WiDR, COLO205,” for “HT29,”, “LIM2405 described above” for “CO115”

[5] = tested on: RKO cells, sensitive strain; experiment: Viability of sensitive strain with encorafenib and ATRA; details: for IC50: Homo sapiens, RKO, Sensitive Strain, read-out: IC50 (50% inhibition concentration)
[6] = tested on: RKO cells, encorafenib/cetuximab resistant strain; experiment: Viability of encorafenib/cetuximab resistant strain with encorafenib and ATRA; details: for IC50: Homo sapiens, RKO, Resistant Strain, read-out: IC50 (50% inhibition concentration)
Procedure: Encorafenib/cetuximab resistant strains were constructed, and the inhibitor enhancing effect of ATRA was examined for the resistant strains.
For the construction of the resistant strains, the above-described RKO cells were seeded in 15 mm dishes and a group in which the BRAF inhibitor Encorafenib and an anti-EGFR antibody Cetuximab were administered and a group in which the BRAF inhibitor Encorafenib, the MEK inhibitor Binimetinib, and the anti-EGFR antibody Cetuximab were administered were prepared.
The vertical axis represents the viability (ratio), and the horizontal axis represents the administration amount of encorafenib.

[7] = Test Example 6, concentration-dependent, smaller concentrations than Test Example 3
[8] = Test Example 3, EB 0.1 μM, retinol 30 μM, tamibarotene 10 μM or bexarotene 10 μM
[9] = Test Example 3, EB 0.01 μM, retinol, tamibarotene or bexarotene 1 μM
[10] = Test Example 3, EB 0.1 μM, retinol 30 μM or tamibarotene 30 μM

**Q.** C=C(c1ccc(C(=O)O)cc1)c1cc2c(cc1C)C(C)(C)CCC2(C)C [bexarotene] was tested. Which “cell viability on further adding a retinoid to EB” value (from here on “cell viability”) [1, 7] did it give?
**A.** greatly decreased

**Q.** And the “cell viability” value [2, 8]?
**A.** greatly reduced

**Q.** And the “cell viability” value [2, 7]?
**A.** greatly decreased

**Q.** And the “cell viability” value [3, 9]?
**A.** greatly reduced

**Q.** And the “cell viability” value [3, 7]?
**A.** greatly decreased

**Q.** What about the “cell viability” value (COLO205 cell line) of the same compound?
**A.** greatly decreased

**Q.** And the “cell viability” value (LIM2405 cell line)?
**A.** greatly decreased

**Q.** What about the “cell viability” value [4] of the same compound?
**A.** greatly decreased

**Q.** How did the IC50 ([5]; ATRA 0 μM) turn out when COC(=O)N[C@@H](C)CNc1nccc(-c2cn(C(C)C)nc2-c2cc(Cl)cc(NS(C)(=O)=O)c2F)n1 [encorafenib] was run?
**A.** 1230 nM

**Q.** What about the IC50 ([5]; ATRA 1 μM) of the same compound?
**A.** 4.6 nM

**Q.** And the “viability (ratio)” value ([5]; sensitive strain (S), ATRA 1 μM, encorafenib 0 to 10 μM)?
**A.** around 0.1

**Q.** What about the “viability (ratio)” value ([5]; sensitive strain, ATRA not administered) of the same compound?
**A.** around 0.3

**Q.** And the IC50 ([6]; ATRA 0 μM)?
**A.** > 10000 nM

**Q.** And the IC50 ([6]; ATRA 1 μM)?
**A.** 1580 nM

**Q.** What about the “viability (ratio)” value ([6]; resistant strain (R), ATRA 1 μM) of the same compound?
**A.** around 0.3

**Q.** Which results are given for CC1(C)CCC(C)(C)c2cc(NC(=O)c3ccc(C(=O)O)cc3)ccc21 [tamibarotene]?
**A.** cell viability on further adding a retinoid to EB [1, 10]: greatly reduced; cell viability on further adding a retinoid to EB [1, 7]: greatly decreased; cell viability on further adding a retinoid to EB [2, 8]: greatly reduced; cell viability on further adding a retinoid to EB [2, 7]: greatly decreased; cell viability on further adding a retinoid to EB [3, 9]: greatly reduced; cell viability on further adding a retinoid to EB [3, 7]: greatly decreased; cell viability on further adding a retinoid to EB (COLO205 cell line): greatly decreased; cell viability on further adding a retinoid to EB (LIM2405 cell line): greatly decreased; cell viability on further adding a retinoid to EB [4]: greatly decreased

**Q.** How did the “cell viability” value [1, 10] turn out when CC1=C(/C=C/C(C)=C/C=C/C(C)=C/CO)C(C)(C)CCC1 [retinol] was run?
**A.** greatly reduced

**Q.** And the “cell viability” value [1, 7]?
**A.** greatly decreased

**Q.** And the “cell viability” value [2, 8]?
**A.** greatly reduced

**Q.** What about the “cell viability” value [2, 7] of the same compound?
**A.** greatly decreased

**Q.** And the “cell viability” value [3, 9]?
**A.** greatly reduced

**Q.** And the “cell viability” value [3, 7]?
**A.** greatly decreased

**Q.** What about the “cell viability” value (COLO205 cell line) of the same compound?
**A.** greatly decreased

**Q.** And the “cell viability” value (LIM2405 cell line)?
**A.** greatly decreased

**Q.** And the “cell viability” value [4]?
**A.** greatly decreased
